pEC50: −log10 of the molar value. Where two headings read alike, the source gives them in different places. Starred links: 1 amine or outer side, 2 acyl side, 3 side chain; linkers in the order of their positions; H or OH if unused. Non-standard residues stand in square brackets, D forms with d. Groups on a side chain read outwards from the residue. *: point of attachment. C20 diacid = O=C(O)CCCCCCCCCCCCCCCCCCC(=O)*; C18 diacid = O=C(O)CCCCCCCCCCCCCCCCC(=O)*; γGlu = O=C(O)[C@H](CCC(=O)[*:2])N[*:1]; αMeL = CC(C)C[C@](C)(N)C(=O)O; AEEA = NCCOCCOCC(=O)O; Aib = CC(C)(N)C(=O)O
Columns and labels:
Assay type in all cases: cell-based
[1] = target: T1, hGIPR (Homo sapiens, UniProt P48546); test: Functional cAMP activity in the presence of 1% HSA
T1 sequence (P48546 22-466): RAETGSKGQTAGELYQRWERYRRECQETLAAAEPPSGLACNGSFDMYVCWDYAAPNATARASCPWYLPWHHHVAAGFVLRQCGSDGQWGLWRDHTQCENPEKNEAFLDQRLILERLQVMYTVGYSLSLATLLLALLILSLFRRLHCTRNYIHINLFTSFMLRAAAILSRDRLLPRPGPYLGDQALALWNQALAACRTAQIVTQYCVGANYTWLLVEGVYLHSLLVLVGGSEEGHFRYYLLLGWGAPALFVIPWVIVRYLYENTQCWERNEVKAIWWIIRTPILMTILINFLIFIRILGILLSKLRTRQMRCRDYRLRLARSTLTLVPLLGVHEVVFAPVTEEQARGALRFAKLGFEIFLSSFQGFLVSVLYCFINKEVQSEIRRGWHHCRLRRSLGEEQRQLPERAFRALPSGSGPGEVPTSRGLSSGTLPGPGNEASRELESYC

[2] = target: T1, hGIPR; test: Functional cAMP activation in the presence of 0.1% casein (no HSA);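 as to Relative cAMP EC50, hGIPR: intracellular cAMP rise after 30 min at 37 °C read by HTRF against a standard curve, scaled between buffer alone (0%) and top control ligand concentration (100%), four-parameter fit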;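 as to Relative cAMP EC50, hGLP-1R: intracellular cAMP rise after 30 min at 37 °C read by HTRF, normalized between buffer only (0%) and maximal control ligand (100%), four-parameter variable-slope fit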;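 as to Relative cAMP EC50, hGcgR: intracellular cAMP rise after 30 min at 37 °C, read by HTRF against a cAMP standard curve, scaled from buffer only (0%) to maximal control ligand response (100%)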
[3] = target: hGcgR (Homo sapiens, UniProt P47871); test: as above;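 also: intracellular cAMP rise after 30 min at 37 °C, read by HTRF against a cAMP standard curve, scaled from buffer only (0%) to maximal control ligand response (100%)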
[4] = target: T2, hGLP-1R (Homo sapiens, UniProt P43220); test: Functional cAMP activity in the presence of 1% HSA
[5] = target: human GcgR (Homo sapiens, UniProt P47871); test: Functional cAMP activity in the presence of 1% HSA
[6] = target: T2, hGLP-1R; test: Functional cAMP activation in the presence of 0.1% casein (no HSA);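 as to Relative cAMP EC50, hGIPR: intracellular cAMP rise after 30 min at 37 °C read by HTRF against a standard curve, scaled between buffer alone (0%) and top control ligand concentration (100%), four-parameter fit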;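 as to Relative cAMP EC50, hGLP-1R: intracellular cAMP rise after 30 min at 37 °C read by HTRF, normalized between buffer only (0%) and maximal control ligand (100%), four-parameter variable-slope fit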;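 as to Relative cAMP EC50, hGcgR: intracellular cAMP rise after 30 min at 37 °C, read by HTRF against a cAMP standard curve, scaled from buffer only (0%) to maximal control ligand response (100%)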
[7] = target: human GLP1-R (Homo sapiens, UniProt P43220); test: GLP1-R internalization assay in HEK293 cells; conditions: for Internalization % TOP: normalized to maximum concentration of GLP-1 (100%)
[8] = in the presence of 0.1% casein (no HSA), geometric mean, read-out: Relative cAMP EC50, hGIPR
[9] = in the presence of 0.1% casein (no HSA), geometric mean, read-out: Relative cAMP EC50, hGcgR
[10] = read-out: cAMP Rel EC50, hGLP-1R
[11] = in the presence of 0.1% casein (no HSA), geometric mean, read-out: Relative cAMP EC50, hGLP-1R
[12] = HEK293 cells expressing SNAP-GLP-1R, read-out: GLP1R Internalization EC50

Sequence of human GLP1-R (P43220 24-463): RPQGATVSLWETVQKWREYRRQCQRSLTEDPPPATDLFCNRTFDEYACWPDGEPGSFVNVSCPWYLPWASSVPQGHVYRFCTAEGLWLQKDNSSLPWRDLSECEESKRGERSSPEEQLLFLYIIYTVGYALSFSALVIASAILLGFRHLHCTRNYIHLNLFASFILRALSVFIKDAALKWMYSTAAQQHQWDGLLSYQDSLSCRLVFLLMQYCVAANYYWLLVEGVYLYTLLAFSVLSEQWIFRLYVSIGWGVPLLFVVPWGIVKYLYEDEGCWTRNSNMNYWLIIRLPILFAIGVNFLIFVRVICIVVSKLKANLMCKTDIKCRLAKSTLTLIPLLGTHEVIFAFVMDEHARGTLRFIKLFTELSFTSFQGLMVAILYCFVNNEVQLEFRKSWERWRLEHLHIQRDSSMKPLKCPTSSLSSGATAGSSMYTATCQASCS
T2 sequence (P43220 24-463): as above
Sequence of hGcgR (P47871 26-477): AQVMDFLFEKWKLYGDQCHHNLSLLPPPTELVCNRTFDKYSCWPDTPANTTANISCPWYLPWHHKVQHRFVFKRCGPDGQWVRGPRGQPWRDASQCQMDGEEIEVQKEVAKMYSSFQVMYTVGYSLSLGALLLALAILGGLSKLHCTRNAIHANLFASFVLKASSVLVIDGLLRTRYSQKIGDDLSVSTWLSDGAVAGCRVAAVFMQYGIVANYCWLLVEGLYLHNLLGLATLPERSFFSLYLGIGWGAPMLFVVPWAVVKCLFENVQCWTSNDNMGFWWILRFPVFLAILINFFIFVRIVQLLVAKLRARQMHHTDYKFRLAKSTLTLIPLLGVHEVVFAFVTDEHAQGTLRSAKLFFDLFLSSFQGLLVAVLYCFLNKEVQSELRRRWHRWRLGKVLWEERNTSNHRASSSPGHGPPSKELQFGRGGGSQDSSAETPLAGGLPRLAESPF
Sequence of human GcgR (P47871 26-477): as above

| Substance | pEC50 ([1]; read-out: cAMP Rel EC50, hGIPR) | pEC50 [2, 8] | pEC50 [3, 9] | pEC50 [4, 10] | pEC50 ([5]; read-out: cAMP Rel EC50, hGcgR) | pEC50 [6, 11] | pEC50 [7, 12] | Internalization % TOP [7] [%] | pEC50 [1] | pEC50 [2] | pEC50 [3] | pEC50 [4] | pEC50 [5] | pEC50 [6] | pEC50 [7] |
| --- | --- | --- | --- | --- | --- | --- | --- | --- | --- | --- | --- | --- | --- | --- | --- |
| H-Y[Aib]QGTFTSDFSK[αMeL]LDKK([AEEA-γGlu-C18 diacid])AQ[Aib]AFIEYLLE[Aib]GPSSGAPPPSEG-NH2 [Example 57] | 8.42 | 10.01 | 8.36 | 7.37 | 6.95 | 8.51 | 7.12 | 73.1 | – | – | – | – | – | – | – |
| H-Y[Aib]QGTFTSDFSK[αMeL]LDKK([AEEA-γGlu-C18 diacid])AQ[Aib]AFIEYLLE[Aib]GPSSGEPPPSEG-NH2 [Example 46] | 7.71 | 10.02 | 8.82 | 6.22 | 6.41 | 8.39 | 7.39 | 58.1 | – | – | – | – | – | – | – |
| H-Y[Aib]QGTFTSDFSK[αMeL]LDKK([AEEA-γGlu-C18 diacid])AQ[Aib]QFIEYLLEGGPSSGAPPPSEG-NH2 [Example 51] | 7.01 | 9.38 | 8.29 | 5.92 | 6.07 | 8.24 | 7.05 | 55.7 | – | – | – | – | – | – | – |
| H-Y[Aib]QGTFTSDFSK[αMeL]LDKK([AEEA-γGlu-C20 diacid])AQQAFIEYLLA[Aib]GPSSGEPPPSEG-NH2 [Example 19] | – | – | – | – | – | – | – | 72.6 | 7.18 | 9.64 | 8.63 | 5.88 | 6.00 | 8.40 | 7.28 |
| H-Y[Aib]QGTFTSDFSK[αMeL]LDKK([AEEA-γGlu-C20 diacid])AQ[Aib]AFIEWLLEGGPSSGAPPPSEG-NH2 [Example 37] | 7.25 | 9.68 | 8.17 | 6.29 | 5.73 | 8.78 | 7.29 | 68.3 | – | – | – | – | – | – | – |
| H-Y[Aib]QGTFTSDFSK[αMeL]LDKK([AEEA-γGlu-C20 diacid])AQ[Aib]AFIEYLLAGGPSSGAPPPGGE-NH2 [Example 15] | 7.44 | 9.70 | 7.95 | 6.56 | 5.70 | 8.75 | 7.10 | 74.9 | – | – | – | – | – | – | – |
| H-Y[Aib]QGTFTSDFSK[αMeL]LDKK([AEEA-γGlu-C20 diacid])AQ[Aib]AFIEYLLAGGPSSGAPPPGGS-NH2 [Example 16] | 7.44 | 9.66 | 8.05 | 6.55 | 5.78 | 8.81 | 7.42 | 74.6 | – | – | – | – | – | – | – |
| H-Y[Aib]QGTFTSDFSK[αMeL]LDKK([AEEA-γGlu-C20 diacid])AQ[Aib]AFIEYLLAGGPSSGAPPPSEG-NH2 [Example 10] | 7.37 | 9.65 | 8.12 | 6.43 | 5.79 | 8.73 | 7.10 | 71.9 | – | – | – | – | – | – | – |
| H-Y[Aib]QGTFTSDFSK[αMeL]LDKK([AEEA-γGlu-C20 diacid])AQ[Aib]AFIEYLLAGGPSSGAPPPSGE-NH2 [Example 11] | 7.39 | 9.63 | 7.90 | 6.47 | 5.77 | 8.68 | 7.12 | 73.8 | – | – | – | – | – | – | – |
| H-Y[Aib]QGTFTSDFSK[αMeL]LDKK([AEEA-γGlu-C20 diacid])AQ[Aib]AFIEYLLAGGPSSGAPPPSGG-NH2 [Example 12] | 7.52 | 9.77 | 7.91 | 6.67 | 5.83 | 8.84 | 7.31 | 75.3 | – | – | – | – | – | – | – |
| H-Y[Aib]QGTFTSDFSK[αMeL]LDKK([AEEA-γGlu-C20 diacid])AQ[Aib]AFIEYLLAGGPSSGEPPPGEG-NH2 [Example 31] | 7.20 | 9.60 | 8.07 | 6.13 | 5.76 | 8.67 | 7.04 | 67.4 | – | – | – | – | – | – | – |

Reference: patent publication US20240270821A1, “GIP/GLP1/GCG TRI-RECEPTOR AGONISTS AND USES THEREOF” (priority 2023, published 2024)
